From US9617242B2, “Histone demethylase inhibitors” (priority 2012, dated 2017) come the findings set out here.

One assay has as its target Jarid1A (Homo sapiens (Human), UniProt P29375). The experiment in a line: Jarid1A in vitro enzyme inhibition assay (TR-FRET). Type of assay: biochemical. In general terms: Time-resolved FRET reads energy transfer from a long-lived donor to a nearby acceptor.
The target in the next assay is Jarid1B (Homo sapiens (Human), UniProt Q9UGL1). The assay is described as follows: Jarid1B in vitro enzyme inhibition assay (TR-FRET). The format is biochemical.
Another assay concerns the target JMJD2C (Homo sapiens (Human), UniProt Q9H3R0). The assay is described as follows: JMJD2C in vitro enzyme inhibition assay (TR-FRET). The format is biochemical.
The next assay deals with KDM5A/B. The assay is described as follows: In vitro cell-based assay: tri-methyl H3K4 immuno-blotting in ZR-75-1 breast cancer cells. As for the experimental part:
This quantitative immuno-blotting assay measures the amount tri-methylated histone H3 at amino acid Lysine number 4, a specific substrate […] of the direct enzymatic activity of the histone demethylases KDM5A and KDM5B from extracts of the ZR-75-1 breast cancer cell line.
This assay is a fluorometric immunoassay for the quantification of tri-methyl H3K4 extracted from cells treated with test compound and is used as a measure of the cellular inhibition of KDM5A/B.
Extracts were prepared containing all of the cellular histone material using detergent based lysis and sonication methods. These lysates were subsequently normalized for total protein content using a colorimetric bicinchonic acid assay (MicroBCA Pierce/Thermo Scientific). Normalized cell extracts were then subjected to typical immuno-blotting procedures using NuPage reagents (Life Technologies). Electrophoretically separated histones were then transferred and immobilized using polyvinylidene difluoride membrane (Immobilon-FL Millipore). The amount of tri-methylated lysine 4 of histone H3 was detected using an antibody specific to the tri-methylated state (Cell Signaling Technologies) and quantified on an infrared imager using a densitometry software package (Odyssey CLx, Image Studio, Li-Cor). This background subtracted densitometry value was reported as a ration of the GAPDH amount for that sample and then calculated as a percent of the DMSO treated sample. The software package XL-fit (IDBS) was then used to calculate a relative IC50 value for the dilution series of a given test compound according to the equation: fit=(D+((Vmax*(x^n))/((x^n)+(Km^n)))).

Where [1] appears, read: 72 hours, read-out: Cellular IC50.
[2] abbreviates: read-out: Cellular IC50, 72 hours.

The structures appear in SMILES notation. Counter-ions that a name gives are not always drawn. Like-named read-outs stand apart in the source and are kept apart here.

Chain of JMJD2C (Q9H3R0 2-372): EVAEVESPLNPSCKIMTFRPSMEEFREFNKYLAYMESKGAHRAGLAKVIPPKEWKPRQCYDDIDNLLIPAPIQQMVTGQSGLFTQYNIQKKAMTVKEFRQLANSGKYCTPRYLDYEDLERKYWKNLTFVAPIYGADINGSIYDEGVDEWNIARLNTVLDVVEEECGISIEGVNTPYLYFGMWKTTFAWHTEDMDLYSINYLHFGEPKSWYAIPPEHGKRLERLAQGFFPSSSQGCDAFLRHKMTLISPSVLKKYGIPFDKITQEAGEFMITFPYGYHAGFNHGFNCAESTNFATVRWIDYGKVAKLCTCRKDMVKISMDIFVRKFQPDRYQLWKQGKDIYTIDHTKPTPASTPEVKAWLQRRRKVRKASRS
Chain of Jarid1A (P29375 1-1090): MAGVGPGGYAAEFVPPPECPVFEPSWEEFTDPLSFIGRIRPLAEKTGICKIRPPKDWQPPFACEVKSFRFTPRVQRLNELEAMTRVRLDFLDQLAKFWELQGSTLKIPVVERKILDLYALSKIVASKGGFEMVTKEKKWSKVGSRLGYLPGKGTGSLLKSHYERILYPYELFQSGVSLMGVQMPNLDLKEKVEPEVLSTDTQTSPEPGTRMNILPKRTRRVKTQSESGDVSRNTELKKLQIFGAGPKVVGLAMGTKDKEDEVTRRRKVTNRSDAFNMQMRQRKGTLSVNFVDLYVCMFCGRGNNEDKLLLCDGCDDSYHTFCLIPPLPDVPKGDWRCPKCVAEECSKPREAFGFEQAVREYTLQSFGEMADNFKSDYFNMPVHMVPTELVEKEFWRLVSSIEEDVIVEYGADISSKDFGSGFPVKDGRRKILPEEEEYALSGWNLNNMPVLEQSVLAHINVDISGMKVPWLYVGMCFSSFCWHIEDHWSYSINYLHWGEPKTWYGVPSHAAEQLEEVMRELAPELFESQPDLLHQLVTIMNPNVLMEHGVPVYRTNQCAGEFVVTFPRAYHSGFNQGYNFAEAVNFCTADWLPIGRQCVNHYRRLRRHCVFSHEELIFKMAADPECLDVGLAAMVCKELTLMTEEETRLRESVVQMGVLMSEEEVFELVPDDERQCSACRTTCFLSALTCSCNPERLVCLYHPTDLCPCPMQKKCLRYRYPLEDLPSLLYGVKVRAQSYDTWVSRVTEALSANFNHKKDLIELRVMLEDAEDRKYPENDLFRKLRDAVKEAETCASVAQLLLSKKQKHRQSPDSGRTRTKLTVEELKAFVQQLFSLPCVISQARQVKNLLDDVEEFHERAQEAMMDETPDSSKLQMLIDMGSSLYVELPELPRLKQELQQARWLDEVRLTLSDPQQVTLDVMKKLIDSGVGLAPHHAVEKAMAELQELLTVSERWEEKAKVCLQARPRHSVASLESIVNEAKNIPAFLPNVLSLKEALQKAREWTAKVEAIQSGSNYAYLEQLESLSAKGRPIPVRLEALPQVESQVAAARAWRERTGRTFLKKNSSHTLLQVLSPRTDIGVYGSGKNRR
Chain of Jarid1B (Q9UGL1 2-751): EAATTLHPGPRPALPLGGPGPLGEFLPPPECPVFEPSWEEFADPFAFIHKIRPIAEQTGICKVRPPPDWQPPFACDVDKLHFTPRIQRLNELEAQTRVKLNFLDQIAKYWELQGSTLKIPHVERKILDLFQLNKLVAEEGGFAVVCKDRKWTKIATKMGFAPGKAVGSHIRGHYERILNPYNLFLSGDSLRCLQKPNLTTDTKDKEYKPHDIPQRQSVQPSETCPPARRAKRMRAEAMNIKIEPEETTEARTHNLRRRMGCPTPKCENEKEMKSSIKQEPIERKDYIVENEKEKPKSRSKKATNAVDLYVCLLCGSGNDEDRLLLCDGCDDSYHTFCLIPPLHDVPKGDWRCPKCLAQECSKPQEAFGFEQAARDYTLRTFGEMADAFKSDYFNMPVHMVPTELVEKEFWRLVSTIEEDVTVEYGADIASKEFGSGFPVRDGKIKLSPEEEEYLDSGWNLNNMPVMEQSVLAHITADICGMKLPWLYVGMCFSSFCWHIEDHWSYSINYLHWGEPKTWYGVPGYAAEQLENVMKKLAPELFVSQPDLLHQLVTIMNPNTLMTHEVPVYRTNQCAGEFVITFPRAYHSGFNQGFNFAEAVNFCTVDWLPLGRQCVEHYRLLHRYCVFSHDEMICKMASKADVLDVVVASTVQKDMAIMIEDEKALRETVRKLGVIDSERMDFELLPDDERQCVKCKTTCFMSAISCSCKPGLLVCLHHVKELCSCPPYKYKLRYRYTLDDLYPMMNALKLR

As to `COCCCn1nc(Nc2cnccc2C(=O)O)c2cc(F)ccc21` [Example 17, 3-{[5-fluoro-1-(methoxypropyl)-1H-indazol-3-yl]amino}pyridine-4-carboxylic acid], the IC50 at Jarid1A is under 0.1 µM; against Jarid1B it was under 0.1 µM; against JMJD2C, under 0.1 µM; in the assay on KDM5A/B (setting [1]), over 10 µM.

With `CN(C)CCOCCn1nc(Nc2cnccc2C(=O)O)c2ccccc21` [Example 11, 3-[(1-{2-[2-(dimethylamino)ethoxy]ethyl}-1H-indazol-3-yl)amino]pyridine-4-carboxylic acid], the IC50 at Jarid1A is under 0.1 µM; at Jarid1B, under 0.1 µM; against JMJD2C, under 0.1 µM; with KDM5A/B (setting [1]) it was over 10 µM.

Turning to `CN(C)CCCCn1nc(Nc2cnccc2C(=O)O)c2cc(F)ccc21` [Example 43, 3-({1-[4-(dimethylamino)butyl]-5-fluoro-1H-indazol-3-yl}amino)pyridine-4-carboxylic acid, trifluoroacetic acid salt], the IC50 at Jarid1A was under 0.1 µM; against Jarid1B it was under 0.1 µM; on JMJD2C it was under 0.1 µM; in the assay on KDM5A/B (setting [2]), 1 to 10 µM.

Turning to `CC(O)Cn1nc(Nc2cnccc2C(=O)O)c2cc(F)ccc21` (centres unmarked) [Example 51, 3-{[5-fluoro-1-(2-hydroxypropyl)-1H-indazol-3-yl]amino}pyridine-4-carboxylic acid], the half-maximal inhibitory concentration (IC50) against Jarid1A was under 0.1 µM; on Jarid1B, under 0.1 µM; against JMJD2C, under 0.1 µM; with KDM5A/B (setting [1]), 1 to 10 µM.

`O=C(O)c1ccncc1Nc1nn(CCN2CCCC2)c2ccc(F)cc12` [Example 50, 3-({5-fluoro-1-[2-(pyrrolidin-1-yl)ethyl]-1H-indazol-3-yl}amino)pyridine-4-carboxylic acid]: the IC50 was under 0.1 µM on Jarid1A, under 0.1 µM against Jarid1B, under 0.1 µM against JMJD2C and 1 to 10 µM in the assay on KDM5A/B (setting [1]).

Regarding `O=C(O)c1ccncc1Nc1nn([C@@H]2CCOC2)c2ccc(F)cc12` [Example 67, 3-({5-fluoro-1-[(3R)-tetrahydrofuran-3-yl]-1H-indazol-3-yl}amino)pyridine-4-carboxylic acid], the IC50 on Jarid1A was under 0.1 µM; at Jarid1B, under 0.1 µM; against JMJD2C, under 0.1 µM; in the assay on KDM5A/B (setting [1]) it was 1 to 10 µM.

As to `O=C(O)c1ccncc1Nc1nn(CC(O)CO)c2ccc(F)cc12` (centres unmarked) [Example 48, 3-{[1-(2,3-dihydroxypropyl)-5-fluoro-1H-indazol-3-yl]amino}pyridine-4-carboxylic acid], the IC50 on Jarid1A is under 0.1 µM; on Jarid1B, under 0.1 µM; against JMJD2C it was under 0.1 µM; with KDM5A/B (setting [1]) it was over 10 µM.

`O=C(O)c1ccncc1Nc1nn(CCCO)c2ccc(F)cc12` [Example 42, 3-{[5-fluoro-1-(3-hydroxypropyl)-1H-indazol-3-yl]amino}pyridine-4-carboxylic acid]: the IC50 was under 0.1 µM on Jarid1A, under 0.1 µM on Jarid1B, under 0.1 µM at JMJD2C and 1 to 10 µM with KDM5A/B (setting [1]).

Take `Cn1nc(Nc2cnccc2C(=O)O)c2cc(F)ccc21` [Example 7, 3-[(5-fluoro-1-methyl-1H-indazol-3-yl)amino]pyridine-4-carboxylic acid]: the IC50 is under 0.1 µM on Jarid1A, under 0.1 µM on Jarid1B, under 0.1 µM against JMJD2C and 1 to 10 µM with KDM5A/B (setting [1]).

With `CCCn1nc(Nc2cnccc2C(=O)O)c2cccc(F)c21` [Example 20, 3-[(7-fluoro-1-propyl-1H-indazol-3-yl)amino]pyridine-4-carboxylic acid], the IC50 against Jarid1A is under 0.1 µM; against Jarid1B, under 0.1 µM; at JMJD2C, under 0.1 µM; with KDM5A/B (setting [1]), 1 to 10 µM.

For `O=C(O)c1ccncc1Nc1nn(C2CCOC2)c2ccc(F)cc12` (centres unmarked) [Example 54, 3-{[5-fluoro-1-(tetrahydrofuran-3-yl)-1H-indazol-3-yl]amino}pyridine-4-carboxylic acid], the IC50 at Jarid1A is under 0.1 µM; against Jarid1B, under 0.1 µM; against JMJD2C it was under 0.1 µM; in the assay on KDM5A/B (setting [1]), 1 to 10 µM.

For `O=C(O)c1ccncc1Nc1nn(CCN2CCC(F)(F)C2)c2ccc(F)cc12` [Example 71, 3-({1-[2-(3,3-difluoropyrrolidin-1yl)ethyl]-5-fluoro-1H-indazol-3-yl}amino)pyridine-4-carboxylic acid], the half-maximal inhibitory concentration (IC50) against Jarid1A is under 0.1 µM; against Jarid1B, under 0.1 µM; against JMJD2C it was under 0.1 µM; with KDM5A/B (setting [1]) it was 1 to 10 µM.

Regarding `O=C(O)c1ccncc1Nc1nn(CCC2CCCNC2)c2ccc(F)cc12` (centres unmarked) [Example 47, 3-({5-fluoro-1-[2-(piperidin-3-yl)ethyl]-1H-indazol-3-yl}amino)pyridine-4-carboxylic acid, trifluoroacetic acid salt], the IC50 at Jarid1A was under 0.1 µM; against Jarid1B it was under 0.1 µM; on JMJD2C it was under 0.1 µM; in the assay on KDM5A/B (setting [2]), over 10 µM.

Consider `CN(C)CCOCCn1nc(Nc2cnccc2C(=O)O)c2cc(F)ccc21` [Example 27, 3-[(1-{2-[2-(dimethylamino)ethoxy]ethyl}-5-fluoro-1H-indazol-3-yl)amino]pyridine-4-carboxylic acid, acetic acid salt], for which the IC50 on Jarid1A was under 0.1 µM; against Jarid1B, under 0.1 µM; against JMJD2C, under 0.1 µM; in the assay with KDM5A/B (setting [1]), over 10 µM.

By IC50 is commonly meant the concentration that gives 50% inhibition.
